PMC10649086 (Antimicrobial Agents and Chemotherapy, 2023)
Read-outs that look alike come from different tables or passages of the source.

What was measured:
SARS-CoV-2 [1] = conditions: in vivo; cited from earlier work
SARS-CoV-2 M^pro = molecular target: T1, SARS-CoV-2 M^pro (Severe acute respiratory syndrome coronavirus 2, UniProt P0DTC1); assay type: biochemical
T1 construct: composed of about 300 amino acids embedded in the polyproteins as the nsp5 domain; purchased BPS Biosciences

CoV-229E M^pro = molecular target: T2, CoV-229E M^pro (Human coronavirus 229E, UniProt P0C6X1); experiment: biochemical
T2 construct: M^pro proteins from other human CoVs were also cloned, expressed in E. coli and purified by WuXi AppTec; host or cells: E. coli

CoV-OC43 M^pro = molecular target: T3, CoV-OC43 M^pro (Human coronavirus OC43, UniProt P0C6X6); experiment: biochemical
T3 construct: M^pro proteins from other human CoVs were also cloned, expressed in E. coli and purified by WuXi AppTec; host or cells: E. coli

CoV-HKU1 M^pro = molecular target: T4, CoV-HKU1 M^pro (Human coronavirus HKU1, UniProt P0C6X2); experiment: biochemical
T4 construct: M^pro proteins from other human CoVs were also cloned, expressed in E. coli and purified by WuXi AppTec; host or cells: E. coli

CoV-NL63 M^pro = molecular target: T5, CoV-NL63 M^pro (Human coronavirus NL63, UniProt P0C6X5); experiment: biochemical
T5 construct: M^pro proteins from other human CoVs were also cloned, expressed in E. coli and purified by WuXi AppTec; host or cells: E. coli

caspase-2 = caspase-2 (Homo sapiens, UniProt P42575); assay type: biochemical
chymotrypsin C = chymotrypsin C (Homo sapiens, UniProt Q99895); assay type: biochemical
elastase = assay type: biochemical, human
thrombin = thrombin (Homo sapiens, UniProt P00734); assay type: biochemical
caspase 3 = caspase 3 (Homo sapiens, UniProt P42574); assay type: biochemical
calpain1 = calpain1 (Homo sapiens, UniProt P07384); assay type: biochemical
cathepsin D = cathepsin D (Homo sapiens, UniProt P07339); assay type: biochemical
dipeptidyl peptidase IV = dipeptidyl peptidase IV (Homo sapiens, UniProt P27487); assay type: biochemical
cathepsin S = cathepsin S (Homo sapiens, UniProt P25774); experiment: biochemical
cathepsin K = cathepsin K (Homo sapiens, UniProt P43235); experiment: biochemical
cathepsin B = cathepsin B (Homo sapiens, UniProt P07858); experiment: biochemical
cathepsin L = cathepsin L (Homo sapiens, UniProt P07711); experiment: biochemical
SARS-CoV-2 WA1 NLuc = experiment: microbe, parasite or virus in culture; assay type: cell-based
[2] = test system: SARS-CoV-2 Wuhan replicon (WT); experiment: microbe, parasite or virus in culture; assay type: cell-based
CoV-229E = experiment: organism not typed; assay type: cell-based
CoV-OC43 = experiment: organism not typed; assay type: cell-based
SARS-CoV-2 Alpha = experiment: microbe, parasite or virus in culture; assay type: cell-based
SARS-CoV-2 Epsilon = experiment: microbe, parasite or virus in culture; assay type: cell-based
SARS-CoV-2 Delta = experiment: microbe, parasite or virus in culture; assay type: cell-based
SARS-CoV-2 AY.20 Delta = experiment: microbe, parasite or virus in culture; assay type: cell-based
SARS-CoV-2 Mu = experiment: microbe, parasite or virus in culture; assay type: cell-based
[3] = test system: SARS-CoV-2 BA.1.1 Omicron; experiment: microbe, parasite or virus in culture; assay type: cell-based
SARS-CoV-2 BA.2 Omicron = experiment: microbe, parasite or virus in culture; assay type: cell-based
[4] = test system: SARS-CoV-2 BA.2.12.1 Omicron; experiment: microbe, parasite or virus in culture; assay type: cell-based
[5] = test system: SARS-CoV-2 BA.4.1 Omicron; experiment: microbe, parasite or virus in culture; assay type: cell-based
[6] = test system: SARS-CoV-2 BA.5.2.1 Omicron; experiment: microbe, parasite or virus in culture; assay type: cell-based
SARS-CoV-2 [7] = conditions: human, in vivo; cited from earlier work
SARS-CoV2 WT M^pro = molecular target: T6, SARS-CoV2 WT M^pro (Severe acute respiratory syndrome coronavirus 2, UniProt P0DTC1); assay type: biochemical, SARS-CoV-2
T6 construct: codon-optimized cDNA of SARS-CoV-2 M^pro (QIZ13716.1_ORF1a) was cloned into the pET28a vector; host or cells: E. coli

[8] = Severe acute respiratory syndrome coronavirus 2, read-out: EC50 Mean (SD)
[9] = Severe acute respiratory syndrome coronavirus 2, read-out: EC90 Mean (SD)

Sequence of calpain1 (P07384 whole entry): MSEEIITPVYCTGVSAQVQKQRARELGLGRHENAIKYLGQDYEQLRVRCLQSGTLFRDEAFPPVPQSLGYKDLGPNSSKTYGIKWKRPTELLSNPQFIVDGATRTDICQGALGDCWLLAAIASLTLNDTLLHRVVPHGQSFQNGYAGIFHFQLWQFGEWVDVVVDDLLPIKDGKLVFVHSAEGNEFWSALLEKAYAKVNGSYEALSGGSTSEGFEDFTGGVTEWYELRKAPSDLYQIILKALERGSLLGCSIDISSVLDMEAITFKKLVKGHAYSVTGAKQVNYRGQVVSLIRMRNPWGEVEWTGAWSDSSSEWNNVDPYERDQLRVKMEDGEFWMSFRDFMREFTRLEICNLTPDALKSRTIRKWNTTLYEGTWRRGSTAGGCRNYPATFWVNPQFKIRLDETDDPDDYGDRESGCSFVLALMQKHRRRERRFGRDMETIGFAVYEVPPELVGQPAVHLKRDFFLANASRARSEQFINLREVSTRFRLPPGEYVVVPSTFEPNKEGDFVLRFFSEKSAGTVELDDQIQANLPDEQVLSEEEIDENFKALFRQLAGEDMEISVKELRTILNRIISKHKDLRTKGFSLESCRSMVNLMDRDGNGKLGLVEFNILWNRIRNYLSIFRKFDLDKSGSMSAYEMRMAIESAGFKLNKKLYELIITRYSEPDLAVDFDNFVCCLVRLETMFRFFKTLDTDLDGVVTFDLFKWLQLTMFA
Sequence of calpain1 (P04632 whole entry, further chain): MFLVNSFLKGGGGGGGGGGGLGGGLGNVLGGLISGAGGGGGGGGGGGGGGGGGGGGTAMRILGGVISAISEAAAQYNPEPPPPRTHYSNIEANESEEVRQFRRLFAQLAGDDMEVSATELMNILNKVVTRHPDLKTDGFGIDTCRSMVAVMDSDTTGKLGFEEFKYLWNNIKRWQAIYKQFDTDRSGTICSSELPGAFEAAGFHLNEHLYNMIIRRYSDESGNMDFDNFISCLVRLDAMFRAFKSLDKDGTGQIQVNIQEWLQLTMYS
Sequence of caspase-2 (P42575 170-325): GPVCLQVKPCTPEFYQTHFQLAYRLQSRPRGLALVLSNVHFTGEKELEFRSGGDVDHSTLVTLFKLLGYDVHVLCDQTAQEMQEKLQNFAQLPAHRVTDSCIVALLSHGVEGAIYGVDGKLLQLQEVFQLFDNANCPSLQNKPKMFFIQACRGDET
Sequence of caspase-2 (P42575 348-452): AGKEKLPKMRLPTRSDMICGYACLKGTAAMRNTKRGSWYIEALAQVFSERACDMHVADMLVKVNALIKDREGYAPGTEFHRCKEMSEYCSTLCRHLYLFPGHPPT
Sequence of cathepsin S (P25774 115-331): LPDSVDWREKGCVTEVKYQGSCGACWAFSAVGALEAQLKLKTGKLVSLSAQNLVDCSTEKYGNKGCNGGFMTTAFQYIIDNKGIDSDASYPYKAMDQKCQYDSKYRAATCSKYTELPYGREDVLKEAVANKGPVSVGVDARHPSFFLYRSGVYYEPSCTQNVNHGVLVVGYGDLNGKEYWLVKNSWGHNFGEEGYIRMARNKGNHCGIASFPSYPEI
Sequence of cathepsin L (P07711 114-333): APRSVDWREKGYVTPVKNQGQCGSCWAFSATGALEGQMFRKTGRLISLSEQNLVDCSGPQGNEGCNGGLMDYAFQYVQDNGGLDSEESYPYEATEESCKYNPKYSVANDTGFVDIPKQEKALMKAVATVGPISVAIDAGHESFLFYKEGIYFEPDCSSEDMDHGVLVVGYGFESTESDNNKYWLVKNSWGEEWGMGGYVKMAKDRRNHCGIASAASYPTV
Sequence of cathepsin D (P07339 65-412): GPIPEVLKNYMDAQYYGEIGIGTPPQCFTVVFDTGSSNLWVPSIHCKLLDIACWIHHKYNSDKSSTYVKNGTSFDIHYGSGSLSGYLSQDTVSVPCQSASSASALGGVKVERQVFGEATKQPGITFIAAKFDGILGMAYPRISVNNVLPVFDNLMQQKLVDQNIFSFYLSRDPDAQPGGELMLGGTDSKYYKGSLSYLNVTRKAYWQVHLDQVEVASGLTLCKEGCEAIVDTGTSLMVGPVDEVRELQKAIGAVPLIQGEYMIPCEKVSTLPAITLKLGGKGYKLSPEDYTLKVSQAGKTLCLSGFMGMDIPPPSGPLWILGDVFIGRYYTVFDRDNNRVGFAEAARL
T2 sequence (P0C6X1 2966-3267 limits assumed): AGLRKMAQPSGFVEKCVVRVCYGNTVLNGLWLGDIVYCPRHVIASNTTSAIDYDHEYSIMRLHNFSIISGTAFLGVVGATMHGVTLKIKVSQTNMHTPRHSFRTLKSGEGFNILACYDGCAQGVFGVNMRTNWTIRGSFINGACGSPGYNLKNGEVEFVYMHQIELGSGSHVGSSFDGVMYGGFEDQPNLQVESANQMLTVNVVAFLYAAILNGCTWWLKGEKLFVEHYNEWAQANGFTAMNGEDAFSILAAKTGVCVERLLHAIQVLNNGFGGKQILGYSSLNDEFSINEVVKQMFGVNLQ
Sequence of caspase 3 (P42574 29-175): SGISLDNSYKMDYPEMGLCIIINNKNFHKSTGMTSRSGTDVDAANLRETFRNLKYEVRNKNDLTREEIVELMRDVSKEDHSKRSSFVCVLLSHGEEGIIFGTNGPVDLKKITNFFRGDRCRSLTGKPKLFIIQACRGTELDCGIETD
Sequence of caspase 3 (P42574 176-277): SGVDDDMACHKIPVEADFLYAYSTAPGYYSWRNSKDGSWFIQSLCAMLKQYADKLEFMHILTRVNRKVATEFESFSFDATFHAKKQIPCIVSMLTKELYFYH
T5 sequence (P0C6X5 2940-3242 limits assumed): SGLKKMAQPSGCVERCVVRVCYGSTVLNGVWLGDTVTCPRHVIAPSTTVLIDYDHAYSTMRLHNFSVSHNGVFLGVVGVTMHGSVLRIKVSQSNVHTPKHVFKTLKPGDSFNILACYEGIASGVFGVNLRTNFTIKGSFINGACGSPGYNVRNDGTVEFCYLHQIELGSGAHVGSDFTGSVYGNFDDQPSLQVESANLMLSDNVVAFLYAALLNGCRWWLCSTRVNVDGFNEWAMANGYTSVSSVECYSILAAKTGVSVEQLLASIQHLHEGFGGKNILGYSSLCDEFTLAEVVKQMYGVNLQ
T3 sequence (P0C6X6 3247-3549 limits assumed): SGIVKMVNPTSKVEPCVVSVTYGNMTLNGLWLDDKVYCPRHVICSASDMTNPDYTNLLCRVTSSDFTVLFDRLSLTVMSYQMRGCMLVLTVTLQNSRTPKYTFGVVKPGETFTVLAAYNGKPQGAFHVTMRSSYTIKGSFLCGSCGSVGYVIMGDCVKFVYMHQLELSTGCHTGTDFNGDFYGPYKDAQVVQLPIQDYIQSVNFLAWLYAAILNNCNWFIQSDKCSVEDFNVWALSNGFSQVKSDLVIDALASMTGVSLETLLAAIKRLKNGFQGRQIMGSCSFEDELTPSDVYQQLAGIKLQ
Sequence of chymotrypsin C (Q99895 30-268): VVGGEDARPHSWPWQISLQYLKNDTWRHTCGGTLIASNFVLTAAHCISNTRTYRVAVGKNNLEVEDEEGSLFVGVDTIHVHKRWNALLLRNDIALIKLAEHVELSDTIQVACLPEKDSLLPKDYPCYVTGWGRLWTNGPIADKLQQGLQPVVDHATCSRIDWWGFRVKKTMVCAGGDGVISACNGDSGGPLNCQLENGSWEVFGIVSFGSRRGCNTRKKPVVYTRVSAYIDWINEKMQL
Sequence of dipeptidyl peptidase IV (P27487 whole entry): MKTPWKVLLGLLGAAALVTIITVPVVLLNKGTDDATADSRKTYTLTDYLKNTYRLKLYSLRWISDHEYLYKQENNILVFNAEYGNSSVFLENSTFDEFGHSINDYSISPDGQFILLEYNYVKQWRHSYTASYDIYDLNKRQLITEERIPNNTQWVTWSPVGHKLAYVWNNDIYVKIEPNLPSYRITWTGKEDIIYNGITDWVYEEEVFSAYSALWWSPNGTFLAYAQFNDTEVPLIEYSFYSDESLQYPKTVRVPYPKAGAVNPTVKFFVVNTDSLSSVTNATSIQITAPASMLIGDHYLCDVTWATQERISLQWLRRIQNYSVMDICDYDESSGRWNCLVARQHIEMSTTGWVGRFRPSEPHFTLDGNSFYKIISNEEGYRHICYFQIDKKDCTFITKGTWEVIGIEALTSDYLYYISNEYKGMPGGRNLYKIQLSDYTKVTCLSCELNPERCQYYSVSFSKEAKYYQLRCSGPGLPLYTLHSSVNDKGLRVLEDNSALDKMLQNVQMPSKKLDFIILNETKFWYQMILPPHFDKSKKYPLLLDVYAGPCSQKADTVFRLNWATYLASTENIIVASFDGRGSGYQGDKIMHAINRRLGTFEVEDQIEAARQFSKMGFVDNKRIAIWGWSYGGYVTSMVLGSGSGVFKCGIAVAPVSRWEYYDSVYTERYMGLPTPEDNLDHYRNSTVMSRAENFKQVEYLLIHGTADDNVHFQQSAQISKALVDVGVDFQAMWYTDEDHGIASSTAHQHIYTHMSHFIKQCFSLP
Sequence of cathepsin K (P43235 115-329): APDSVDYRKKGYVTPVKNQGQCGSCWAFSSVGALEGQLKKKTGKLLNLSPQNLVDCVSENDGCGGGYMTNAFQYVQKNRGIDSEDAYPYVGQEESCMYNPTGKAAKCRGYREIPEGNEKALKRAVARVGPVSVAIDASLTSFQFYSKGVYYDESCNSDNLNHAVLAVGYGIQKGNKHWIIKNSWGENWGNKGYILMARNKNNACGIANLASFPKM
T4 sequence (P0C6X2 3335-3637 limits assumed): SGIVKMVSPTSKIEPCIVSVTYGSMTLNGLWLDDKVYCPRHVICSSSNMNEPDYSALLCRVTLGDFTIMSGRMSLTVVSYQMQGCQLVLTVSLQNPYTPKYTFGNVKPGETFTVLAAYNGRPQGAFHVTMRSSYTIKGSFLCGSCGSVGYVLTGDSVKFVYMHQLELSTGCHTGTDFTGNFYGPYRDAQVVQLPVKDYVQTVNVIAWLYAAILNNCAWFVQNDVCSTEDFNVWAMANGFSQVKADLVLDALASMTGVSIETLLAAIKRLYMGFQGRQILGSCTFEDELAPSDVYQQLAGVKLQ

CC(C)C[C@@H](C(=O)N1C[C@]2(C[C@H]1C#N)C(=O)Nc1ccccc12)N(C)C(=O)c1cc2c(F)cc(F)c(F)c2[nH]1 [EDP-235]
effect on viral RNA decline or infectious viral load in nasal samples (SARS-CoV-2 [1]): failed to demonstrate the effect on viral RNA decline or infectious viral load in nasal samples

N#C[C@H](C[C@@H]1CCCNC1=O)NC(=O)[C@H](CC1CC1)NC(=O)c1cc2cccc(Cl)c2[nH]1 [pomotrelvir]
alpha factor (SARS-CoV-2 M^pro): 10.4
IC50 (CoV-229E M^pro): 141 nM
IC50 (CoV-OC43 M^pro): 158 nM
IC50 (CoV-HKU1 M^pro): 61 nM
IC50 (CoV-NL63 M^pro): 206 nM
inhibitory activity (caspase-2): no inhibitory activity was observed
inhibitory activity (chymotrypsin C): no inhibitory activity was observed
inhibitory activity (elastase): no inhibitory activity was observed
inhibitory activity (thrombin): no inhibitory activity was observed
inhibitory activity (caspase 3): no inhibitory activity was observed
inhibitory activity (calpain1): no inhibitory activity was observed
inhibitory activity (cathepsin D): no inhibitory activity was observed
inhibitory activity (dipeptidyl peptidase IV): no inhibitory activity was observed
Ki (cathepsin S): 445 nM
Ki (cathepsin K): 289 nM
Ki (cathepsin B): 1270 nM
Ki (cathepsin L): 7.4 µM
EC90 (SARS-CoV-2 WA1 NLuc; Severe acute respiratory syndrome coronavirus 2, A549-ACE2, read-out: Mean EC90 (SD)): 114 nM
EC50 (SARS-CoV-2 WA1 NLuc; read-out: Mean EC50 (SD)): 23 nM
EC50 ([2]; Severe acute respiratory syndrome coronavirus 2, Huh-7, read-out: EC50 Mean (SD)): 31 nM
EC90 ([2]; Severe acute respiratory syndrome coronavirus 2, Huh-7, read-out: EC90 Mean (SD)): 170 nM
EC50 ([2]; read-out: Mean EC50 (SD)): 27 nM
EC90 ([2]; read-out: Mean EC90 (SD)): 150 nM
EC90 (CoV-229E; MRC5, read-out: Mean EC90 (SD)): 410 nM
EC50 (CoV-229E; read-out: Mean EC50 (SD)): 180 nM
EC50 (CoV-OC43; Huh-7, read-out: Mean EC50 (SD)): 380 nM
EC90 (CoV-OC43; Huh-7, read-out: Mean EC90 (SD)): 490 nM
EC50 (SARS-CoV-2 Alpha; [8]): 95 nM
EC90 (SARS-CoV-2 Alpha; [9]): 144 nM
EC50 (SARS-CoV-2 Epsilon; [8]): 195 nM
EC90 (SARS-CoV-2 Epsilon; [9]): 777 nM
EC50 (SARS-CoV-2 Delta; [8]): 251 nM
EC90 (SARS-CoV-2 Delta; [9]): 425 nM
EC50 (SARS-CoV-2 AY.20 Delta; [8]): 374 nM
EC90 (SARS-CoV-2 AY.20 Delta; [9]): 672 nM
EC50 (SARS-CoV-2 Mu; [8]): 73 nM
EC90 (SARS-CoV-2 Mu; [9]): 195 nM
EC50 [3, 8]: 94 nM
EC90 [3, 9]: 213 nM
EC90 (SARS-CoV-2 BA.2 Omicron; [9]): 668 nM
EC50 (SARS-CoV-2 BA.2 Omicron; read-out: EC50 Mean (SD)): 139 nM
EC50 [4, 8]: 60 nM
EC90 [4, 9]: 171 nM
EC50 [5, 8]: 244 nM
EC90 [5, 9]: 1120 nM
EC50 [6, 8]: 256 nM
EC90 [6, 9]: 1270 nM
primary endpoint: proportion of patients below the limit of detection by infectious virus assay on day 3 of treatment (SARS-CoV-2 [7]): did not meet the primary endpoint

GC376
IC50 (SARS-CoV2 WT M^pro): 20 nM
